Measurements from the NIST ThermoML archive (doi:10.1016/j.tca.2017.08.004).

Experiments:
[1] = Crystal; for vapor or sublimation pressure: Transpiration method
[2] = Molar enthalpy of transition or fusion; conditions: Crystal; DSC

CC(=O)c1ccc(N=C2SCC3CCCN2C3)cc1 (stereo unspecified)
[1]
Conditions | vapor or sublimation pressure [kPa]
370.15 K | 1.72e-05
372.15 K | 2.17e-05
373.15 K | 2.52e-05
374.15 K | 2.65e-05
375.15 K | 3.08e-05
377.15 K | 3.73e-05
379.15 K | 4.55e-05
381.15 K | 5.67e-05
383.15 K | 6.72e-05
385.15 K | 8.05e-05
387.15 K | 9.63e-05
389.15 K | 0.0001225
390.15 K | 0.0001287
391.15 K | 0.0001437
392.15 K | 0.0001637

CC(C)c1ccc(N=C2SCC3CCCN2C3)cc1 (stereo unspecified)
[1]
Conditions | vapor or sublimation pressure [kPa]
308.15 K | 7.9e-06
310.15 K | 1.01e-05
311.15 K | 1.19e-05
313.15 K | 1.61e-05
314.15 K | 1.86e-05
315.15 K | 2.13e-05
316.15 K | 2.3e-05
317.15 K | 2.74e-05
318.15 K | 3.07e-05
319.15 K | 3.29e-05
320.15 K | 3.89e-05
322.15 K | 4.8e-05
323.15 K | 5.57e-05

N#Cc1ccc(N=C2SCC3CCCN2C3)cc1 (stereo unspecified)
[1]
Conditions | vapor or sublimation pressure [kPa]
341.15 K | 4.41e-05
343.15 K | 6.35e-05
345.15 K | 8.28e-05
347.15 K | 0.0001196
349.15 K | 0.0001553
351.15 K | 0.0002074
353.15 K | 0.0002772
354.15 K | 0.0002989
356.15 K | 0.0004234
358.15 K | 0.000541
360.15 K | 0.0007001
361.15 K | 0.0008286

Fc1ccc(N=C2[Se]CC3CCCN2C3)cc1 (stereo unspecified) [N-(4-fluorophenyl)-3-selena-1-azabicyclo[3.3.1]nonan-2-imine]
[1]
Conditions | Normal melting temperature [°C] | vapor or sublimation pressure [kPa]
344.15 K | – | 6.71e-05
346.15 K | – | 8.23e-05
348.15 K | – | 0.0001009
350.15 K | – | 0.0001254
352.15 K | – | 0.0001539
354.15 K | – | 0.0001821
357.15 K | – | 0.0002441
359.15 K | – | 0.0002956
360.15 K | – | 0.0003273
361.15 K | – | 0.00036
362.15 K | – | 0.0003964
363.15 K | – | 0.0004316
364.15 K | – | 0.0004719
365.15 K | – | 0.0005306
DTA | 103.1 | –

Conditions | Molar enthalpy of transition or fusion [kcal/mol]
[2] | 5.23
